What was measured:
[1] = tested on: HL-60; test: Cell growth test (Cell Titer Blue) HL-60; assay type: cell-based; conditions: Homo sapiens, 72 h, HL-60, Acute myeloid leukemia, 3 days
Procedure: (§1) Moreover, the compound of Example 14 was subjected to a cell growth test using various types of cell lines.
(§2) All cell lines other than the below-noticed cells were each seeded in a well plate, in which an RPMI-1640 medium supplemented with penicillin/streptomycin and FBS with a final concentration of 10% was placed. The human prostate cancer cell line VCaP (ATCC) was seeded in a well plate, in which DMEM medium supplemented with penicillin/streptomycin and FBS with a final concentration of 10% was placed. […] Thereafter, using Enspire Multimode Plate Reader (PerkinElmer), the amount of fluorescence at an excitation wavelength of 531 nm and a fluorescence wavelength of 615 nm was measured. Since the amount of fluorescence is in proportion to the concentration of a florescent product resorufin that is converted from resazurin as a redox dye by living cells, the amount of fluorescence was used as an indicator of the number of living cells. The growth inhibition percentage of the test compound in each concentration was calculated according to the following equation. Growth inhibition percentage (%)=(amount of fluorescence in test compound−added well)/(amount of fluorescence in DMSO−added well)×100 […]

[2] = tested on: KG-1A; test: Cell growth test (Cell Titer Blue) KG-1A; assay type: cell-based; conditions: Homo sapiens, 72 h, Acute myeloid leukemia, 3 days
Procedure: as §1, §2

[3] = tested on: NCI-H522; test: Cell growth test (Cell Titer Blue) NCI-H522; assay type: cell-based; conditions: Homo sapiens, 72 h, NCI-H522, Lung cancer, 3 days
Procedure: as §1, §2

[4] = tested on: NCI-H460; test: Cell growth test (Cell Titer Blue) NCI-H460; assay type: cell-based; conditions: Homo sapiens, 72 h, NCI-H460, Lung cancer, 3 days
Procedure: as §1, §2

[5] = tested on: Raji; test: Cell growth test (Cell Titer Blue) Raji; assay type: cell-based; conditions: Homo sapiens, 72 h, Lymphoma (DSMZ), 3 days
Procedure: as §1, §2

[6] = tested on: MM.1S; test: Cell growth test (Cell Titer Blue) MM.1S; assay type: cell-based; conditions: Homo sapiens, MM1.S, 72 h, Myeloma, 3 days
Procedure: as §1, §2

[7] = tested on: human prostate cancer cell line VCaP; test: Cell growth test (Cell Titer Blue) VCaP; assay type: cell-based; conditions: 72 h, 3 days
Procedure: as §1, §2

[8] = tested on: IL-7R gene; test: Expression of IL-7R gene in MV4-11 cells, RT-PCR; assay type: cell-based, human; conditions: MV4-11 cells, 10, 30 or 100 nmol/L, 6 hours
Procedure: (§3) A fluctuation in the expression of c-Myc, IL-7R and HEXIM1 genes in MV4-11 (ATCC) cells treated with the test compound was analyzed according to a reverse transcription polymerase chain reaction (RT-PCR) method.
(§4) MV4-11 cells were cultured for 6 hours in an RPMI-1640 medium supplemented with penicillin/streptomycin and FBS with a final concentration of 10%, to which the compound of Example 14 was added to a concentration of 10 nmol/L, 30 nmol/L or 100 nmol/L. On the other hand, a non-treatment group (Non-treatment) was established by culturing MV4-11 cells for 6 hours in the above-described medium, to which the compound of Example 14 was not added. Using Rneasy (registered trademark) (Qiagen), RNA was extracted from the above-described MV4-11 cells in accordance with the instruction manual included with the aforementioned device. […] Thereafter, a PCR reaction was carried out for 40 cycles (a cycle consisting of 95° C.-5 seconds and 60° C.-30 seconds.) Subsequently, the obtained reaction product was measured.
(§5) As a housekeeping gene, the expression level of GAPDH (Glyceraldehyde 3-phosphate dehydrogenase) was also evaluated. The ratio of the expression level of the mRNA of each of c-Myc, IL-7R and HEXIM1 to the expression level of GAPDH was calculated, and the expression level of each gene (relative expression level) was then quantified. […]

[9] = tested on: HEXIM1 gene; test: Expression of HEXIM1 gene in MV4-11 cells, RT-PCR; assay type: cell-based, human; conditions: MV4-11 cells, 10, 30 or 100 nmol/L, 6 hours
Procedure: as §3, §4, §5

[10] = tested on: c-Myc gene; test: Intratumoral expression of c-Myc gene in MV4-11-subcutaneously-transplanted cancer-bearing mouse models, RT-PCR; assay type: in vivo; conditions: 30 mg/kg
Procedure: According to an RT-PCR method, a fluctuation in the intratumoral expression of a c-Myc gene in MV4-11-subcutaneously-transplanted cancer-bearing mouse models, to which a test compound had been administered, was analyzed.
The compound of Example 14 was dissolved in a solvent (a 0.5% methyl cellulose aqueous solution or water containing 1 equivalent of hydrochloric acid), and the obtained solution was then orally administered to the mice at a dose of 30 mg/kg. As a negative control, a solvent administration group (vehicle) involving administration of a 0.5% methyl cellulose aqueous solution was established. Moreover, the test compound was dissolved in a solvent (a normal saline containing 1 equivalent of hydrochloric acid), and the obtained solution was then intravenously administered to the mice at a dose of 30 mg/kg. As a negative control, a solvent administration group (vehicle) involving administration of a normal saline was established. From MV4-11-subcutaneously-transplanted cancer-bearing mice involving oral or intravenous administration of the test compound, tumor was excised 1, 3, 6 and 24 hours (hr) after the administration. […] A PCR reaction was carried out by the same method as that of Test Example 5, and a fluctuation in the gene expression of GAPDH and c-Myc in the tumor was then evaluated.

GI50 [1]: 27 nM
GI50 [3]: 155 nM
GI50 [4]: 2030 nM
GI50 [5]: 203 nM
GI50 [6]: 84 nM
GI50 [7]: 361 nM
SMILES: CCn1c(=O)cc(C2CCN(C)CC2)c2cc(C(=O)N(C)c3ccc(C)cc3)ccc21 [Example 14, 1-Ethyl-N-methyl-N-(4-methylphenyl)-4-(1-methylpiperidin-4-yl)-2-oxo-1,2-dihydroquinoline-6-carboxamide]
GI50 [2]: 119 nM
mRNA expression of IL-7R (GAPDH correction) [8]: decreased in a compound concentration-dependent manner
mRNA expression of HEXIM1 (GAPDH correction) [9]: increased
intratumoral expression of the c-Myc gene ([10]; intravenously, tumor excised 1, 3, 6 and 24 hr after administration (FIG. 4)): decreased
intratumoral expression of the c-Myc gene ([10]; orally, tumor excised 1, 3, 6 and 24 hr after administration (FIG. 5)): decreased
